Measured values as given in patent US9695155B2, “Herbicidal substituted pyrimidinyloxy benzene compounds” (E. I. DU PONT DE NEMOURS AND COMPANY, priority 2013, dated 2017).

Legend:
[1] = test system: barnyardgrass; experiment: Test A preemergence; assay type: in vivo, Echinochloa crus-galli; details: 0 to 100 scale where 0 is no effect and 100 is complete control
Procedure, shortened: (§1)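 Visual injury scored 0–100 (100 = complete control) against untreated controls about 10 days after treatment in a greenhouse. Test chemicals, formulated with surfactant in non-phytotoxic solvent, were sprayed on soil preemergence or on 2-10 cm, one- to two-leaf plants postemergence.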

[2] = test system: kochia; experiment: Test A preemergence; assay type: in vivo, Kochia scoparia; details: 0 to 100 scale where 0 is no effect and 100 is complete control
Procedure, shortened: as §1

[3] = test system: Italian ryegrass; experiment: Test A preemergence; assay type: in vivo, Lolium multiflorum; details: 0 to 100 scale where 0 is no effect and 100 is complete control
Procedure, shortened: as §1

[4] = test system: barnyardgrass; experiment: Test A postemergence; assay type: in vivo, Echinochloa crus-galli; details: 0 to 100 scale where 0 is no effect and 100 is complete control
Procedure, shortened: as §1

[5] = test system: Italian ryegrass; experiment: Test A postemergence; assay type: in vivo, Lolium multiflorum; details: 0 to 100 scale where 0 is no effect and 100 is complete control
Procedure, shortened: as §1

[6] = test system: wheat; experiment: Test A postemergence; assay type: in vivo, Triticum aestivum; details: 0 to 100 scale where 0 is no effect and 100 is complete control
Procedure, shortened: as §1

[7] = test system: Italian ryegrass; experiment: Test C preemergence; assay type: in vivo, Lolium multiflorum; details: Lolium multiflorum, pre-emergence
Procedure, shortened: (§2)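 Visual injury score versus untreated controls, 0 = no effect, 100 = complete control, taken 13 to 15 days after treatment in the greenhouse. Pre-emergence pots held loam/sand; post-emergence plants grew in sphagnum peat/vermiculite mix and were sprayed at the 1- to 4-leaf stage.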

[8] = test system: galium; experiment: Test C preemergence; assay type: in vivo, Galium aparine; details: Galium, pre-emergence
Procedure, shortened: as §2

[9] = test system: johnsongrass; experiment: Test C preemergence; assay type: in vivo, Sorghum halepense; details: Sorghum halepense, pre-emergence
Procedure, shortened: as §2

[10] = test system: morningglory; experiment: Test C preemergence; assay type: in vivo, Ipomoea coccinea; details: Ipomoea, pre-emergence
Procedure, shortened: as §2

[11] = test system: blackgrass; experiment: Test C postemergence; assay type: in vivo, Alopecurus myosuroides; details: Alopecurus myosuroides, post-emergence
Procedure, shortened: as §2

[12] = test system: galium; experiment: Test C postemergence; assay type: in vivo, Galium aparine; details: Galium, post-emergence
Procedure, shortened: as §2

[13] = test system: giant foxtail; experiment: Test C postemergence; assay type: in vivo, Setaria faberii; details: Setaria faberi, post-emergence
Procedure, shortened: as §2

[14] = test system: lambsquarters; experiment: Test C postemergence; assay type: in vivo, Chenopodium album; details: Chenopodium album, post-emergence
Procedure, shortened: as §2

[15] = test system: ragweed; experiment: Test C postemergence; assay type: in vivo, Ambrosia elatior; details: Ambrosia artemisiifolia, post-emergence
Procedure, shortened: as §2

[16] = test system: soybean; experiment: Test C postemergence; assay type: in vivo, Glycine max; details: Glycine max, post-emergence
Procedure, shortened: as §2

[17] = test system: velvetleaf; experiment: Test C postemergence; assay type: in vivo, Abutilon theophrasti; details: Abutilon theophrasti, post-emergence
Procedure, shortened: as §2

Structure (SMILES): N#Cc1cccc(Oc2ncc(Cl)cn2)c1-n1cc(SC(F)(F)F)cn1 [Compound 134, 3-[(5-chloro-2-pyrimidinyl)oxy]-2-[4-(trifluoromethylthio)-1-pyrazolyl]benzonitrile]
- Plant response rating, Barnyardgrass ([1]; 125 g ai/ha): 70
- Barnyardgrass plant response rating ([1]; 500 g ai/ha): 100
- Plant response rating, Kochia ([2]; 125 g ai/ha): 100
- Kochia plant response rating ([2]; 500 g ai/ha): 100
- Plant response rating, Ryegrass, Italian ([3]; 125 g ai/ha): 20
- Ryegrass, Italian plant response rating ([3]; 500 g ai/ha): 40
- Barnyardgrass plant response rating ([4]; 125 g ai/ha): 80
- Plant response rating, Barnyardgrass ([4]; 500 g ai/ha): 90
- Ryegrass, Italian plant response rating ([5]; 125 g ai/ha): 50
- Plant response rating, Ryegrass, Italian ([5]; 500 g ai/ha): 100
- Plant response rating, Wheat ([6]; 500 g ai/ha): 70
- plant injury at 125 g/ha ([6]; Triticum aestivum, post-emergence, 240 h, 125 g ai/ha, read-out: Wheat plant response rating): 0%
- pest or weed control at 16 g/ha ([7]; 16 g ai/ha, preemergence, scale 0 to 100 (0 no effect, 100 complete control), read-out: Ryegrass, Italian plant response rating): 0%
- pest or weed control at 62 g/ha ([7]; 62 g ai/ha, preemergence, scale 0 (no effect) to 100 (complete control), read-out: Ryegrass, Italian plant response rating): 15%
- pest or weed control at 125 g/ha ([7]; 125 g ai/ha, preemergence, scale 0 (no effect) to 100 (complete control), read-out: Ryegrass, Italian plant response rating): 70%
- pest or weed control at 31 g/ha ([7]; Preemergence, 31 g ai/ha, scale 0 to 100, 0 no effect, 100 complete control, read-out: Plant response rating, Ryegrass, Italian): 5%
- pest or weed control at 16 g/ha ([8]; 16 g ai/ha, preemergence, scale 0 to 100 (0 no effect, 100 complete control), read-out: Galium plant response rating): 0%
- pest or weed control at 62 g/ha ([8]; 62 g ai/ha, preemergence, scale 0 (no effect) to 100 (complete control), read-out: Galium plant response rating): 90%
- pest or weed control at 125 g/ha ([8]; 125 g ai/ha, preemergence, scale 0 (no effect) to 100 (complete control), read-out: Galium plant response rating): 98%
- pest or weed control at 31 g/ha ([8]; Preemergence, 31 g ai/ha, scale 0 to 100, 0 no effect, 100 complete control, read-out: Plant response rating, Galium): 0%
- pest or weed control at 16 g/ha ([9]; 16 g ai/ha, preemergence, scale 0 to 100 (0 no effect, 100 complete control), read-out: Johnsongrass plant response rating): 20%
- pest or weed control at 62 g/ha ([9]; 62 g ai/ha, preemergence, scale 0 (no effect) to 100 (complete control), read-out: Johnsongrass plant response rating): 45%
- pest or weed control at 125 g/ha ([9]; 125 g ai/ha, preemergence, scale 0 (no effect) to 100 (complete control), read-out: Johnsongrass plant response rating): 85%
- pest or weed control at 31 g/ha ([9]; Preemergence, 31 g ai/ha, scale 0 to 100, 0 no effect, 100 complete control, read-out: Plant response rating, Johnsongrass): 25%
- pest or weed control at 16 g/ha ([10]; 16 g ai/ha, preemergence, scale 0 to 100 (0 no effect, 100 complete control), read-out: Morningglory plant response rating): 5%
- pest or weed control at 62 g/ha ([10]; 62 g ai/ha, preemergence, scale 0 (no effect) to 100 (complete control), read-out: Morningglory plant response rating): 35%
- pest or weed control at 125 g/ha ([10]; 125 g ai/ha, preemergence, scale 0 (no effect) to 100 (complete control), read-out: Morningglory plant response rating): 40%
- pest or weed control at 31 g/ha ([10]; Preemergence, 31 g ai/ha, scale 0 to 100, 0 no effect, 100 complete control, read-out: Plant response rating, Morningglory): 20%
- pest or weed control at 16 g/ha ([11]; 16 g ai/ha, postemergence, 0 is no effect, 100 is complete control, read-out: Plant response rating (0 to 100), Blackgrass): 5%
- pest or weed control at 125 g/ha ([11]; 125 g ai/ha, postemergence, visual rating, scale 0 to 100 (0 no effect, 100 complete control), read-out: Plant response rating, Blackgrass): 10%
- pest or weed control at 31 g/ha ([11]; Postemergence, 31 g ai/ha, scale 0 to 100 (0 no effect, 100 complete control), 13 to 15 days, read-out: Plant response rating, Blackgrass): 25%
- pest or weed control at 62 g/ha ([11]; Postemergence, 62 g ai/ha, scale 0 to 100 (0 no effect, 100 complete control), read-out: Plant response rating, Blackgrass): 5%
- pest or weed control at 16 g/ha ([12]; 16 g ai/ha, postemergence, 0 is no effect, 100 is complete control, read-out: Plant response rating (0 to 100), Galium): 65%
- pest or weed control at 125 g/ha ([12]; 125 g ai/ha, postemergence, visual rating, scale 0 to 100 (0 no effect, 100 complete control), read-out: Plant response rating, Galium): 85%
- pest or weed control at 62 g/ha ([12]; Postemergence, 62 g ai/ha, scale 0 to 100 (0 no effect, 100 complete control), read-out: Plant response rating, Galium): 85%
- pest or weed control at 16 g/ha ([13]; 16 g ai/ha, postemergence, 0 is no effect, 100 is complete control, read-out: Plant response rating (0 to 100), Foxtail, Giant): 5%
- pest or weed control at 125 g/ha ([13]; 125 g ai/ha, postemergence, visual rating, scale 0 to 100 (0 no effect, 100 complete control), read-out: Plant response rating, Foxtail, Giant): 5%
- pest or weed control at 62 g/ha ([13]; Postemergence, 62 g ai/ha, scale 0 to 100 (0 no effect, 100 complete control), read-out: Plant response rating, Foxtail, Giant): 5%
- pest or weed control at 16 g/ha ([14]; 16 g ai/ha, postemergence, 0 is no effect, 100 is complete control, read-out: Plant response rating (0 to 100), Lambsquarters): 5%
- pest or weed control at 125 g/ha ([14]; 125 g ai/ha, postemergence, visual rating, scale 0 to 100 (0 no effect, 100 complete control), read-out: Plant response rating, Lambsquarters): 65%
- pest or weed control at 62 g/ha ([14]; Postemergence, 62 g ai/ha, scale 0 to 100 (0 no effect, 100 complete control), read-out: Plant response rating, Lambsquarters): 75%
- pest or weed control at 16 g/ha ([15]; 16 g ai/ha, postemergence, 0 is no effect, 100 is complete control, read-out: Plant response rating (0 to 100), Ragweed): 10%
- pest or weed control at 125 g/ha ([15]; 125 g ai/ha, postemergence, visual rating, scale 0 to 100 (0 no effect, 100 complete control), read-out: Plant response rating, Ragweed): 55%
- pest or weed control at 62 g/ha ([15]; Postemergence, 62 g ai/ha, scale 0 to 100 (0 no effect, 100 complete control), read-out: Plant response rating, Ragweed): 55%
- Soybean plant response rating (crop injury, 0-100 scale) at 16 g/ha ([16]; 16 g ai/ha, postemergence, 0 is no effect, 100 is complete control): 60%
- Soybean plant response rating (crop injury, 0-100 scale) at 125 g/ha ([16]; 125 g ai/ha, postemergence, visual rating, scale 0 to 100 (0 no effect, 100 complete control), read-out: Plant response rating, Soybean): 90%
- Soybean plant response rating (crop injury, 0-100 scale) at 62 g/ha ([16]; Postemergence, 62 g ai/ha, scale 0 to 100 (0 no effect, 100 complete control)): 65%
- pest or weed control at 16 g/ha ([17]; 16 g ai/ha, postemergence, 0 is no effect, 100 is complete control, read-out: Plant response rating (0 to 100), Velvetleaf): 30%
- pest or weed control at 125 g/ha ([17]; 125 g ai/ha, postemergence, visual rating, scale 0 to 100 (0 no effect, 100 complete control), read-out: Plant response rating, Velvetleaf): 55%
- pest or weed control at 62 g/ha ([17]; Postemergence, 62 g ai/ha, scale 0 to 100 (0 no effect, 100 complete control), read-out: Plant response rating, Velvetleaf): 50%
